PMC11010885, “Functional Analysis and Tissue-Specific Expression of Calcitonin and CGRP with RAMP-Modulated Receptors CTR and CLR in Chickens” (Animals : an Open Access Journal from MDPI, 2024)

What was measured:
Assay type in all cases: cell-based
[1] = test system: chicken CTR; assay: cAMP/PKA pGL3-CRE-luciferase reporter assay, CTR + pcDNA in CHO cells
Procedure: (§1) Chinese hamster ovary (CHO) cells were cultured in Dulbecco’s modified Eagle’s medium (DMEM) supplemented with 10% (vol/vol) fetal bovine serum (HyClone, Logan, UT, USA), 100 U/mL penicillin G and 100 μg/mL streptomycin. The cells were maintained in a 90 mm culture dish (Nunc, Rochester, NY, USA) and incubated at 37 °C with 5% CO2. To investigate the signaling pathways associated with each receptor in CHO cells, three different reporter systems (pGL3-CRE-luciferase, pGL4-SRE-luciferase, and pGL3-NFAT-RE-luciferase) were utilized to monitor intracellular cAMP/PKA and MAPK/ERK signaling pathways and calcium mobilization of the activated receptors, respectively.
(§2) Prior to the transfection procedure, the cells were initially cultured in 6-well plates (Nunc, Rochester, NY, USA), maintaining a seeding density of approximately 300,000 cells per well. Upon achieving approximately 70% confluence, the cells underwent a co-transfection process. This procedure entailed the introduction of 700 ng of various luciferase reporter constructs (namely, pGL3-CRE-luciferase, pGL4-SRE-luciferase, or pGL3-NFAT-RE-luciferase) combined with 200 ng of a specific receptor plasmid (CTR or CLR) and 1000 ng of either RAMP1, RAMP2, RAMP3 expression plasmids, or alternatively, the empty pcDNA3.1 (+) vector. A volume of 5.7 μL of PEI MAX was used in 200 μL of buffer following the manufacturer’s protocol. After 24 h of incubation, the transfected CHO cells were subcultured in 96-well plates and passaged for an additional 24 h before peptide treatment. Then, the medium from the 96-well plates was removed, and the cells were treated with chicken CT/CGRP-containing medium (or untreated medium as a control) at concentrations ranging from 10^−12 M to 10^−6 M for 6 h. Subsequently, the cells were harvested for luciferase assays by lysing them in 1 × passive lysis buffer. To measure the luciferase activity of the cell lysate, 40 μL of luciferase assay reagent (Promega, Madison, WI, USA) was mixed with the cell lysate following the manufacturer’s instructions. The fluorescence activity of the luciferase in each treatment group was measured using a multimode microplate reader (TriStar LB941, Berthold Technologies, Bad Wildbad, Germany). Finally, the fluorescence activity of each treatment group was expressed as a relative increase ratio compared to the control group.

[2] = test system: chicken CTR + RAMP1; assay: cAMP/PKA pGL3-CRE-luciferase reporter assay, CTR + RAMP1 in CHO cells; conditions: 10^−12 M to 10^−6 M, 6 h, mean ± SEM, n = 3, read-out: EC50, cAMP/PKA signaling pathway
Procedure: as §1
(§3) Prior to the transfection procedure, the cells were initially cultured in 6-well plates (Nunc, Rochester, NY, USA), maintaining a seeding density of approximately 300,000 cells per well. Upon achieving approximately 70% confluence, the cells underwent a co-transfection process. […] The fluorescence activity of the luciferase in each treatment group was measured using a multimode microplate reader (TriStar LB941, Berthold Technologies, Bad Wildbad, Germany). Finally, the fluorescence activity of each treatment group was expressed as a relative increase ratio compared to the control group.

[3] = test system: chicken CTR + RAMP2; assay: cAMP/PKA pGL3-CRE-luciferase reporter assay, CTR + RAMP2 in CHO cells; conditions: 10^−12 M to 10^−6 M, 6 h, mean ± SEM, n = 3, read-out: EC50, cAMP/PKA signaling pathway
Procedure: as §1, §3

[4] = test system: chicken CTR + RAMP3; assay: cAMP/PKA pGL3-CRE-luciferase reporter assay, CTR + RAMP3 in CHO cells; conditions: 10^−12 M to 10^−6 M, 6 h, mean ± SEM, n = 3, read-out: EC50, cAMP/PKA signaling pathway
Procedure: as §1, §3

[5] = test system: chicken CLR; assay: cAMP/PKA pGL3-CRE-luciferase reporter assay, CLR + pcDNA in CHO cells
Procedure: as §1, §2

[6] = test system: chicken CLR + RAMP1; assay: cAMP/PKA pGL3-CRE-luciferase reporter assay, CLR + RAMP1 in CHO cells
Procedure: as §1
as §2, with “Subsequently, the cells were harvested for luciferase assays by lysing them in 1 × passive lysis buffer. To measure the luciferase activity of the cell lysate, 40 μL of luciferase assay reagent (Promega, Madison, WI, USA) was mixed with the cell lysate following the manufacturer’s instructions.” left out

[7] = test system: chicken CLR + RAMP2; assay: cAMP/PKA pGL3-CRE-luciferase reporter assay, CLR + RAMP2 in CHO cells; conditions: 10^−12 M to 10^−6 M, 6 h, mean ± SEM, n = 3, read-out: EC50, cAMP/PKA signaling pathway
Procedure: as §1, §3

[8] = test system: chicken CLR + RAMP3; assay: cAMP/PKA pGL3-CRE-luciferase reporter assay, CLR + RAMP3 in CHO cells; conditions: 10^−12 M to 10^−6 M, 6 h, mean ± SEM, n = 3, read-out: EC50, cAMP/PKA signaling pathway
Procedure: as §1, §3

[9] = test system: chicken CTR; assay: MAPK/ERK pGL4-SRE-luciferase reporter assay, CTR + pcDNA in CHO cells; conditions: 10^−12 M to 10^−6 M, 6 h, mean ± SEM, n = 3, read-out: EC50, MAPK/ERK signaling pathway
Procedure: as §1, §3

[10] = test system: chicken CTR + RAMP1; assay: MAPK/ERK pGL4-SRE-luciferase reporter assay, CTR + RAMP1 in CHO cells; conditions: 10^−12 M to 10^−6 M, 6 h, mean ± SEM, n = 3, read-out: EC50, MAPK/ERK signaling pathway
Procedure: as §1, §3

[11] = test system: chicken CTR + RAMP2; assay: MAPK/ERK pGL4-SRE-luciferase reporter assay, CTR + RAMP2 in CHO cells; conditions: 10^−12 M to 10^−6 M, 6 h, mean ± SEM, n = 3, read-out: EC50, MAPK/ERK signaling pathway
Procedure: as §1, §3

[12] = test system: chicken CTR + RAMP3; assay: MAPK/ERK pGL4-SRE-luciferase reporter assay, CTR + RAMP3 in CHO cells; conditions: 10^−12 M to 10^−6 M, 6 h, mean ± SEM, n = 3, read-out: EC50, MAPK/ERK signaling pathway
Procedure: as §1, §3

[13] = test system: chicken CLR; assay: MAPK/ERK pGL4-SRE-luciferase reporter assay, CLR + pcDNA in CHO cells; conditions: 10^−12 M to 10^−6 M, 6 h, mean ± SEM, n = 3, read-out: EC50, MAPK/ERK signaling pathway
Procedure: as §1, §3

[14] = test system: chicken CLR + RAMP1; assay: MAPK/ERK pGL4-SRE-luciferase reporter assay, CLR + RAMP1 in CHO cells; conditions: 10^−12 M to 10^−6 M, 6 h, mean ± SEM, n = 3, read-out: EC50, MAPK/ERK signaling pathway
Procedure: as §1, §3

calcitonin gene-related peptide [CGRP]
EC50 ([1]; CTR + pcDNA, CHO cells, pGL3-CRE-luciferase, 10^−12 M to 10^−6 M, 6 h, mean ± SEM, n = 3, read-out: EC50, cAMP/PKA signaling pathway): 2.35 ± 0.63 nM
activation (cAMP production), in words ([1]; independent CTR): preferentially activates CTR
EC50 [2]: 0.1 ± 0.01 nM
EC50 [3]: 1.63 ± 0.19 nM
EC50 [4]: 0.24 ± 0.07 nM
EC50 ([5]; CLR + pcDNA, CHO cells, pGL3-CRE-luciferase, 10^−12 M to 10^−6 M, 6 h, mean ± SEM, n = 3, read-out: EC50, cAMP/PKA signaling pathway): > 100 nM
activation (cAMP production), in words ([5]; independent CLR): no effect on CLR
EC50 ([6]; CLR + RAMP1, CHO cells, pGL3-CRE-luciferase, 10^−12 M to 10^−6 M, 6 h, mean ± SEM, n = 3, read-out: EC50, cAMP/PKA signaling pathway): 0.26 ± 0.03 nM
EC50 of CGRP relative to CT ([6]; CLR in the presence of RAMP1): approximately tenfold lower than CT
EC50 [7]: 40.9 ± 6.76 nM
EC50 [8]: 1.84 ± 0.73 nM
EC50 [9]: 6.73 ± 1.78 nM
EC50 [10]: 0.41 ± 0.08 nM
EC50 [11]: 10.4 ± 1.12 nM
EC50 [12]: 0.67 ± 0.24 nM
EC50 [13]: > 100 nM
EC50 [14]: 0.66 ± 0.11 nM
